Data reported in patent US8772500B2, “TRPV3 modulators” (AbbVie Inc., priority 2011, dated 2014).
Where two headings read alike, the source gives them in different places.

Key:
[1] = In vitro human microsomal stability assay; assay type: in vitro ADME
How it was run: (§1)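 Incubations ran at 37 °C in NADPH-supplemented rat (Sprague-Dawley) or human hepatic microsomes.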

[2] = In vitro rat microsomal stability assay; assay type: in vitro ADME, rat (Sprague-Dawley)
How it was run: as §1

[3] = molecular target: T1, human TRPV3 (Homo sapiens, UniProt Q8NET8); assay: In vitro antagonism of recombinant human TRPV3 activation (FLIPR Tetra calcium assay, 2-APB as agonist); assay type: cell-based; details: HEK293 cells stably expressing human TRPV3, 2-APB 80 μM
T1 construct: expressed in transfected cells
T1 sequence (Q8NET8 1-790): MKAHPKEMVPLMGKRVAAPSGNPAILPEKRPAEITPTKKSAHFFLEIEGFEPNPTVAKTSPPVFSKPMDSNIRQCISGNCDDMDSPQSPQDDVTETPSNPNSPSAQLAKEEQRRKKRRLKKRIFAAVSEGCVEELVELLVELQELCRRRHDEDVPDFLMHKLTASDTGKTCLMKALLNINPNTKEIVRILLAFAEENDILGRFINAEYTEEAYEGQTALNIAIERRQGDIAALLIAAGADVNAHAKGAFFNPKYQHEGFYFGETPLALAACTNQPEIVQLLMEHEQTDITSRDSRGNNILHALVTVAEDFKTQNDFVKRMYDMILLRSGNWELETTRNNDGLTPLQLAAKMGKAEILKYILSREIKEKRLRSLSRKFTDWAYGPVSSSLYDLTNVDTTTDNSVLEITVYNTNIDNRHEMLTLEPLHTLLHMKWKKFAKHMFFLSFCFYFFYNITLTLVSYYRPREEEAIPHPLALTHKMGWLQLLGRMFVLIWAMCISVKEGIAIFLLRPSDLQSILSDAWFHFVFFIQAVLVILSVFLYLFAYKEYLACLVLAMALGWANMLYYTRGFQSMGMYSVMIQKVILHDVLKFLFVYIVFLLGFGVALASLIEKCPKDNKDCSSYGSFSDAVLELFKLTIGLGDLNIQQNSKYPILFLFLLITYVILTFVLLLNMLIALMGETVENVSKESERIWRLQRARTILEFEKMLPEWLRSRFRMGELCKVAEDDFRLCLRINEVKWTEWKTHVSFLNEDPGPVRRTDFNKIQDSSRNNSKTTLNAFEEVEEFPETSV
How it was run: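 Readout is FLIPR fluorescence, max minus min as percent of uninhibited 2-APB response, giving IC50 (usually mean of ≥2 runs). Stable human TRPV3 HEK293 cells, Calcium-4 dye-loaded, got test compound then, three minutes later, 80 μM 2-APB (EC80); run length 10 min.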

[4] = Sprague-Dawley, rat, 0.5 h, 0.5 μM, pH 7.4
[5] = range class, read-out: IC50 (reported range)
[6] = 0.5 μM substrate, 0.25 mg/mL microsomal protein, pH 7.4, 37° C., NADPH, 30 minutes

Row | Molecule | HUMAN MICROSOMAL STABILITY (% REMAINING AFTER 30 MINUTES) ([1]; human, 0.5 h, 0.5 μM, pH 7.4) [%] | RAT MICROSOMAL STABILITY (% REMAINING AFTER 30 MINUTES) [2, 4] [%] | IC50 [3, 5] [nM] | HUMAN MICROSOMAL STABILITY (% REMAINING AFTER 30 MINUTES) [1, 6] [%] | RAT MICROSOMAL STABILITY (% REMAINING AFTER 30 MINUTES) [2, 6] [%] | IC50 ([3]; mostly average of n≧2, read-out: IC50 (actual measured value, shown parenthetically)) [nM]
1 | OC1CC(c2cccc(OC(F)(F)F)c2)(C(O)c2ccccn2)C1 [Example 272, cis-3-[(S)-hydroxy(pyridin-2-yl)methyl]-3-[3-(trifluoromethoxy)phenyl]-cyclobutanol] | 54 | 48 | 50 to 500 |  |  | 
2 | OC1CC(c2cccc(OC(F)(F)F)c2)(C(O)c2ccccn2)C1 [Example 273, trans-3-[(S)-hydroxy(pyridin-2-yl)methyl]-3-[3-(trifluoromethoxy)phenyl]-cyclobutanol] | 42 | 65 | 50 to 500 |  |  | 
3 | OC(c1ccccn1)C1(C2CCC(F)(F)CC2)CCC1 (stereo not shown) [Example 274, [1-(4,4-difluorocyclohexyl)cyclobutyl](pyridin-2-yl)methanol] | 55 | 10 | 1100 to 5000 |  |  | 
4 | Cn1c(C2(C(O)c3ccccn3)CCC2)nc2ccccc21 (stereo not shown) [Example 275, [1-(1-methyl-1H-benzimidazol-2-yl)cyclobutyl](pyridin-2-yl)methanol] | 67 | 5.7 | 5100 to 20000 |  |  | 
5 | OC1CC(c2ccc(F)c(Cl)c2)([C@H](O)c2ccccn2)C1 (stereo partly drawn) [Example 276, 3-(3-chloro-4-fluorophenyl)-3-[(S)-hydroxy(pyridin-2-yl)methyl]-cyclobutanol] | 72 | 73 | 50 to 500 |  |  | 
6 | O=C1CC(c2cc(C(F)(F)F)ccn2)([C@H](O)c2ccccn2)C1 [Example 277, 3-[(S)-hydroxy(pyridin-2-yl)methyl]-3-[4-(trifluoromethyl)pyridin-2-yl]-cyclobutanone] | >85 | >85 | 1100 to 5000 |  |  | 
7 | O=C1CC(c2cc(C(F)(F)F)ccn2)([C@@H](O)c2ccccn2)C1 [Example 278, 3-[(R)-hydroxy(pyridin-2-yl)methyl]-3-[4-(trifluoromethyl)pyridin-2-yl]-cyclobutanone] | 83 | >85 | 5100 to 20000 |  |  | 
8 | CC(C)(C)OC(=O)N1CCC(C2(C(O)c3ccccn3)CCC2)CC1 (stereo not shown) [Example 279, tert-butyl 4-{1-[hydroxy(pyridin-2-yl)methyl]cyclobutyl}piperidine-1-carboxylate] | 22 | <0.01 | 5100 to 20000 |  |  | 
9 | OC(c1ccccn1)C1(C2CCC(C(F)(F)F)CC2)CCC1 (stereo not shown) [Example 280, pyridin-2-yl{1-[4-(trifluoromethyl)cyclohexyl]cyclobutyl}methanol] | 9.0 | <0.01 | 1100 to 5000 |  |  | 
10 | OC(c1ccccn1)C1(C2CCCOC2)CCC1 (stereo not shown) [Example 281, pyridin-2-yl[1-(tetrahydro-2H-pyran-3-yl)cyclobutyl]methanol] | >85 | 0.054 | 5100 to 20000 |  |  | 
11 | OC1CC(c2cc(C(F)(F)F)ccn2)(C(O)c2ccccn2)C1 [Example 282, cis-3-[(S)-hydroxy(pyridin-2-yl)methyl]-3-[4-(trifluoromethyl)pyridin-2-yl]-cyclobutanol] | >85 | >85 | 501 to 1000 |  |  | 
12 | OC1CC(c2cc(C(F)(F)F)ccn2)(C(O)c2ccccn2)C1 [Example 283, trans-3-[(S)-hydroxy(pyridin-2-yl)methyl]-3-[4-(trifluoromethyl)pyridin-2-yl]cyclobutanol] | >85 | >85 | 501 to 1000 |  |  | 
13 | CC(=O)O[C@H](c1ccccn1)C1(c2ccc(OC(F)(F)F)cc2)CCC1 [Example 288, (S)-pyridin-2-yl{1-[4-(trifluoromethoxy)phenyl]cyclobutyl}methyl acetate] | <0.01 | <0.01 | 5100 to 20000 |  |  | 
14 | Cc1cc(C(F)(F)F)cc(C2([C@@H](O)c3ccccn3)CC(=O)C2)n1 [Example 291, 3-[(R)-hydroxy(pyridin-2-yl)methyl]-3-[6-methyl-4-(trifluoromethyl)pyridin-2-yl]cyclobutanone] | >85 | 53 | 5100 to 20000 |  |  | 
15 | OC(c1ccccn1)C1(c2nc3ccc(Cl)cc3s2)CCC1 (stereo not shown) [Example 292, [1-(6-chloro-1,3-benzothiazol-2-yl)cyclobutyl](pyridin-2-yl)methanol] | 19 | 5.4 | 501 to 1000 |  |  | 
16 | OC(c1ccccn1)C1(c2nc3ccc(F)cc3s2)CCC1 (stereo not shown) [Example 300, [1-(6-fluoro-1,3-benzothiazol-2-yl)cyclobutyl](pyridin-2-yl)methanol] | 35 | 0.020 | 1100 to 5000 |  |  | 
17 | OC(c1ccccn1)C1(c2nc3ccc(Cl)cc3o2)CCC1 (stereo not shown) [Example 301, [1-(6-chloro-1,3-benzoxazol-2-yl)cyclobutyl](pyridin-2-yl)methanol] | 57 | 22 | 5100 to 20000 |  |  | 
18 | OC1CC(c2cncc(C(F)(F)F)c2)(C(O)c2ccccn2)C1 [Example 303, cis-3-[(S)-hydroxy(pyridin-2-yl)methyl]-3-[5-(trifluoromethyl)pyridin-3-yl]-cyclobutanol] | 80 | 32 | 501 to 1000 |  |  | 
19 | OC1CC(c2cncc(C(F)(F)F)c2)(C(O)c2ccccn2)C1 [Example 304, trans-3-[(S)-hydroxy(pyridin-2-yl)methyl]-3-[5-(trifluoromethyl)pyridin-3-yl]cyclobutanol] | >85 | 44 | 50 to 500 |  |  | 
20 | OC1CC(c2ccnc(C(F)(F)F)c2)(C(O)c2ccccn2)C1 [Example 305, cis-3-[(S)-hydroxy(pyridin-2-yl)methyl]-3-[2-(trifluoromethyl)pyridin-4-yl]-cyclobutanol] | 63 | 49 | 50 to 500 |  |  | 
21 | OC1CC(c2ccnc(C(F)(F)F)c2)(C(O)c2ccccn2)C1 [Example 306, trans-3-[(S)-hydroxy(pyridin-2-yl)methyl]-3-[2-(trifluoromethyl)pyridin-4-yl]cyclobutanol] | >85 | >85 | 50 to 500 |  |  | 
22 | CC1(O)CC(c2ccnc(C(F)(F)F)c2)(C(O)c2ccccn2)C1 [Example 307, trans-3-[(S)-hydroxy(pyridin-2-yl)methyl]-1-methyl-3-[2-(trifluoromethyl)-pyridin-4-yl]cyclobutanol] | 73 | >85 | 5100 to 20000 |  |  | 
23 | CC1(O)CC(c2cncc(C(F)(F)F)c2)(C(O)c2ccccn2)C1 [Example 308, cis-3-[(S)-hydroxy(pyridin-2-yl)methyl]-1-methyl-3-[5-(trifluoromethyl)-pyridin-3-yl]cyclobutanol] | 41 | 13 | 501 to 1000 |  |  | 
24 | OC1CC(c2ccc(Cl)c(Cl)c2)(C(O)c2ncccn2)C1 [Example 312, (trans)-3-(3,4-dichlorophenyl)-3-((S)-hydroxy(pyrimidin-2-yl)methyl)-cyclobutanol] | >85 | >85 | 1100 to 5000 |  |  | 
25 | pyridin-2-yl{1-[5-(trifluoromethyl)pyridin-3-yl]cyclobutyl}methanol [Example 110] |  |  | 50 to 500 | 8.0 | 2.8 | 500
